According to patent publication US20180094248A1, “Necroptosis Signaling as a Therapeutic Target for Alzheimer's Disease” (Arizona Board of Regents on behalf of Arizona State …, priority 2016, published 2018):

How the values were obtained:
[1] = system: primary cortical neurons isolated from APP/PS1 and wild type mice; assay: GFP fluorescence in live AAV-GFP infected primary cortical neurons treated with Nec1S or vehicle; assay type: cell-based, mouse; conditions: DIV 15; 10 μM at DIV 7 and 11; APP/PS1-veh vs the other three groups incl. APP/PS1-Nec1S
Protocol: At DIV 1, we infected primary cortical neurons isolated from APP/PS1 and wild type mice with an adeno-associated virus (AAV) expressing the green fluorescent protein (GFP) under the neuronal promotor CamKII. At DIV 7 and 11, neurons from the two genotypes were treated with 10 μM Nec1S or vehicle. We then measured GFP fluorescence in live cells as an indication of live neurons.
(§1) Primary neuronal cultures—For the GFP experiments: Primary neurons were isolated from APP/PS1 and NonTg Po pups. The tissue was then dissociated in Neurobasal media (Thermo Fisher Scientific) and spun down for 3 minutes at 5,000 g at 4° C. The supernatant was discarded and the pellet was re-suspended in 1 ml of Neurobasal media supplemented with B27 (Thermo Fisher Scientific). An equal volume per each sample was seeded into a Poly-D-Lysine-coated (10 mg/mL, Sigma-Aldrich) black 96-well tissue culture plate. […] Neurons were treated for a total of 15 days and the GFP fluorescence was measured every 4 days. […] All fluorescent measurements (excitation 488 nm, emission 509 nm) were performed using the Synergy HT multi-mode microplate reader with the Gen5 software (BioTek, Winooski, Vt.). The reader was pre-heated to 37° C. to maintain optimal conditions for the neurons during the measurements. […]

5xFAD mice = assay: Fluoro-Jade staining of brain sections of 5xFAD mice treated with Nec-1S in vivo; design: species or system mouse; conditions: 8-month-old 5xFAD mice; 10 mg/kg i.p. once, then 0.5 mg/ml in drinking water for 21 days; vs vehicle
Protocol: Specifically, mice receive a single intraperitoneal injection of 10 mg/kg Nec1s after which they were given Nec1S in their drinking water at a concentration of 0.5 mg/ml for 21 days.
Immunohistochemistry: Coronal sections from hippocampus and temporal gyms of control (CTL) and Alzheimer's disease (AD) cases were pre-mounted on coated slides and washed in TBS. After blocking in TBSB (TBS, 2% BSA, and 0.1% Triton X), tissue was incubated overnight at 4° C. with the following primary antibodies: RIPK1 (1:200, BD Transduction Laboratories, catalog number 610459), MLKL (1:200, Novus Biologicals, catalog number NBP1-56729), RIPK3 (1:200, RD Systems catalog number MAB7604), pMLKL Ser358/Thr357 (1:200, Abcam, catalog number ab187091), pMLKL (1:200, SAB Signalway Antibody, catalog number 12837), NeuN (1:200, Cell Signaling, catalog number 024307P), Ibal (1:200, Wako, catalog number 09-19741), GFAP (1:200, Cell Signaling, catalog number 3670S), Caspase 3 (1:200, Millipore, catalog number AB3623), phospho-tau pSer202/Thr205 (ATB, 1:200, Thermo Fisher Scientific, catalog number MN1020), and pan-Cadherin (1:200, Abcam, catalog number ab6528 and ab6529). CP13 was a kind gift from Dr. Peter Davies. […]

[2] = system: primary cortical neurons from APP/PS1 mice; assay: NeuN count of APP/PS1 primary cortical neurons treated with Nec-1S or vehicle; assay type: cell-based, mouse
Protocol: To probe for a direct link between necroptosis and neuronal loss in AD, we plated primary cortical neurons from APP/PS1 and wild type littermate mice. After seven days in vitro (DIV), neurons were treated with 10 μM of the necroptosis inhibitor 7-Cl-O-necrostatin (Nec15) or vehicle. Treatment was repeated at DIV 11. We then fixed neurons at DIV 11 and 15, and stained them for NeuN to count total number of neurons. […] To determine changes in necroptosis, we isolated proteins from neurons of the same four groups and measured the levels of total and phosphorylated MLKL by western blot.
as §1, with “Scientific).” for “Scientific). An equal volume per each sample was seeded into a Poly-D-Lysine-coated (10 mg/mL, Sigma-Aldrich) black 96-well tissue culture plate.”

CN1C(=O)NC(Cc2c[nH]c3c(Cl)cccc23)C1=O (stereo not shown) [Nec1S, 5-((7-chloro-1 H-indol-3-yl)methyl)-3-methylimidazolidine-2,4-dione]
GFP fluorescence in live cells (indication of live neurons) [1]: APP/PS1-veh group had lower GFP levels compared to the other three groups
Fluoro-Jade-positive neurons (5xFAD mice): fewer Fluoro-Jade-positive neurons compared to vehicle-treated 5xFAD mice
number of NeuN-positive neurons ([2]; DIV 15, 10 μM at DIV 7 and DIV 11, APP/PS1-Nec1S vs APP/PS1-veh and WT groups): more neurons than the APP/PS1-veh group, and as many neurons as both WT groups
in vitro cell death of APP/PS1 primary cortical neurons ([2]; overall conclusion of the two independent experiments (NeuN and GFP), 10 μM): reduces the accelerated in vitro cell death of APP/PS1 primary cortical neurons
